Experimental data: patent EP4356929A1, “ANTIFIBROTIC FORMULATION FOR OPHTHALMIC TREATMENT” (Universität Rostock, priority 2022, dated 2024)

Test: physchem
Type: physicochemical
Settings: aqueous gamma-cyclodextrin 200 mg/ml
Method: This hydrogel can then be loaded with JM, which forms a host-guest complex with the yCD molecules Fig. 2 the amount of chlorine in various EPI crosslinked hydrogel samples was quantified. The EPI contains chlorine, but the final crosslinked hydrogel should not. Gels washed at 37°C in DI water were given either three 1-hour washes (short wash) or two 1-hour washes followed by an overnight wash with water or Ethanol. […] Fig. 3 the maximum solubility of Josamycin in aqueous solutions of various yCD concentrations was measured. Soluble JM was measured by HPLC. […] The amount of JM released was measured over time and expressed as a percent of the total JM initially loaded into the gel. Most of the JM was released within the first 96 hrs. […] On the left are molded and washed gels, which have been completely dried. On the right is a fully rehydrated gel which is almost completely transparent. […] The total drug loading was linearly related to the amount of josamycin in the loading solution.
The first formulation developed is a solution of yCD and JM. Solutions of JM and yCD can be made up to 18.9 mg/ml JM with 200 mg/ml yCD. These solutions are formed by simply mixing the JM and yCD in water or PBS until dissolved. This liquid formulation can then be sterilized via syringe filter before use. The solution is suitable for application to the eye as an eye drop or injection during or after surgery. […]

- solubility: ≤ 18.9 mg/mL
SMILES: CO[C@@H]1[C@@H](O[C@@H]2O[C@H](C)[C@@H](O[C@H]3C[C@@](C)(O)[C@@H](OC(=O)CC(C)C)[C@H](C)O3)[C@H](N(C)C)[C@H]2O)[C@@H](CC=O)C[C@@H](C)[C@@H](O)/C=C/C=C/C[C@@H](C)OC(=O)C[C@H]1OC(C)=O [JM, josamycin]
